From patent publication US12072333B2, “Method and apparatus for selective removal of cells from a cell suspension by mechanical lysis” (UNIVERSITY OF IOWA RESEARCH FOUNDATION, priority 2016, dated 2024)

Tested on: prostate cancer cells
Test: Cell killing by ionomycin measured by uptake of trypan blue dye
Format: cell-based
Conditions: prostate cancer cells treated with ionomycin; after 30 minute; FIG. 1B

C[C@H](CCC(=O)O)C[C@H](C)C[C@H](C)C(=O)/C=C(\O)[C@H](C)C[C@H](C)C/C=C/[C@@H](C)[C@@H](O)[C@@H](C)[C@@H](O)C[C@@H]1CC[C@@](C)([C@H]2CC[C@@](C)([C@@H](C)O)O2)O1 [ionomycin]
cell death as measured by uptake of trypan blue dye: rapidly kills these cells
